Measurements published in patent US4784845A, “Emulsion compostions for the parenteral administration of sparingly water soluble ionizable hydrophobic drugs” (American Cyanamid Company, priority 1985, dated 1988).
Converted amounts (≈) assume the structure as drawn. Structures can show the parent of a compound that is named as a salt.

Experiments:
[1] = cited from earlier work; for Ambient Solution pH: commercial drug solution; for pH beyond which significant precipitation occurs: intravenous infusion, commercial drugs
[2] = tested on: soft tissues; conditions: extravasation about the site of attempted intravenous administration; cited from earlier work
[3] = Absorption and excretion of antiarthritic triazine candidate dosage forms; conditions: in vivo
Experimental: (§1) Because the antiarthritic triazine compound is a base, organic acids as counter-ions were studied to improve drug solubility. […] Additional drug complexes were prepared with various organic and inorganic acids. […] The inherent insolubility of the drug appears to be responsible, to some extent, for the preceding results. In order to overcome the drug insolubility problem one of the objectives considered was to design a dosage form which would improve drug absorption when given by intravenous, intramuscular or intra-articular injection.

[4] = physchem; assay type: physicochemical
Experimental: as §1

[5] = tested on: Marginal Ear Vein of Rabbits; experiment: Peripheral vein irritation on intravenous infusion, rabbits (Table IV); assay type: in vivo, rabbit; parameters: key: +: Positive or present; -: Negative or absent; conditions: 2 hour i.v. infusion, gross postmortem one day after
Experimental: The emulsion drug delivery system formulation of Emulsions 3 and 4 in Table III was tested in two species of animals, for peripheral vein irritation in order to determine the occurrence of local injection site adverse reactions. […] The two species of animals used were rabbits and dogs. The formulations were given intravenously in a peripheral vein using a Butterfly infusion set (Becton, Dickenson Co., Inc., Rutherford, N.J.). The marginal ear vein was used in the rabbit and the saphenous or the cephalic vein of the leg was used in the dog.
The formulations were given by slow intravenous infusion using a Sage syringe pump (Sage Instruments, Orion Research Inc., Cambridge, MA) over a 2 hour period. The animals were restrained but unanesthetized during the infusion. After the infusion, the animals were returned to their cages and offered food. The animals were sacrificed one day after the infusion.
At sacrifice, the infused vein was opened from the point of infusion and cardiad for several centimeters. The condition of the vein, its intima and the surrounding parenchyma, as well as the presence or absence of orange-yellow material and/or clots in the vein, were recorded in Tables IV and V.

[6] = Solubility of bisantrene in selected media and biological fluids (Table IB); assay type: physicochemical
[7] = Partitioning of bisantrene in blood; assay type: in vitro ADME; conditions: inferred from solubility characteristics and other information
From the text: In serum and plasma, however, due to increase in the pH, the solubility drops considerably and this may be the reason that the drug precipitates at the point of infusion. […] Thus, if the drug can be kept in solution long enough to allow complete dilution in the entire blood volume, then the partitioning should take place without the intermediate precipitation.

[8] = challenge tests, benzyl alcohol vs parabens as preservative; cited from earlier work
[9] = cited from earlier work
[10] = tested on: mammals; conditions: aqueous solution, intravenous; cited from earlier work
[11] = dissolved in oil phase of soybean oil emulsion, parenteral; cited from earlier work
[12] = propylene glycol, benzyl alcohol and ethyl alcohol as solvents; cited from earlier work
[13] = tested on: normal human subjects; conditions: single doses of 2.0 g, 24 subjects, cited from earlier work

CC(C)NCC(O)COc1cccc2ccccc12 (racemic) [Inderal, propanolol]
Ambient Solution pH [1]: 3.50
pH beyond which significant precipitation occurs [1]: 6.00

COc1cccc2c1C(=O)c1c(O)c3c(c(O)c1C2=O)C[C@@](O)(C(=O)CO)C[C@@H]3O[C@H]1C[C@H](N)[C@H](O)[C@H](C)O1 [Adriamycin]
tissue damage on extravasation [2]: massive tissue necrosis

CC(C)(C)C(C)(C)Nc1nc(NC(C)(C)C(C)(C)C)nc(N2CC3CCC(CC3)C2)n1 [Antiarthritic Triazine Compound, 3-[4,6-bis[(1,1-2,2-tetramethylpropyl)amino]-s-triazin-2-yl]-3-azabicyclo[3.2.2]nonane]
parenteral absorption [3]: negligible
oral absorption ([3]; po): slightly better
dose excreted ([3]; oral, candidate dosage forms, preliminary, read-out: compound excreted in the feces): ~90%
increase of solubility [4]: 0.5 to 1.0 mg/mL
solubility [4]: 0.3 mg/mL (≈ 697 µM)
solubility in water [4]: insignificant solubility in water
solubility range [4]: 0.5 to 1.5 mg/mL
solubility ([4]; 1,3-butylene glycol, organic solvent or mixture): 0.3 mg/mL (≈ 697 µM)
solubility ([4]; benzyl alcohol, organic solvent or mixture): 0.8 mg/mL (≈ 1860 µM)
solubility ([4]; benzyl benzoate, organic solvent or mixture): 1.3 mg/mL (≈ 3020 µM)
solubility ([4]; brij 35 2% solution): 0.05 mg/mL (≈ 116 µM)
solubility ([4]; cremophor el, organic solvent or mixture): 0.2 mg/mL (≈ 464 µM)
solubility ([4]; dimethyl acetamide, organic solvent or mixture): 0.7 mg/mL (≈ 1630 µM)
solubility ([4]; emulphor el-620p, organic solvent or mixture): < 0.1 mg/mL
solubility ([4]; ethanol usp, organic solvent or mixture): < 0.1 mg/mL
solubility ([4]; propylene glycol isostearate, organic solvent or mixture): 1.5 mg/mL (≈ 3480 µM)
solubility ([4]; propylene glycol, organic solvent or mixture): < 0.1 mg/mL
solubility ([4]; triacetin, organic solvent or mixture): 0.1 mg/mL (≈ 232 µM)

C[C@H](N)[C@H](O)c1cccc(O)c1 [Aramine, metaraminol]
Ambient Solution pH [1]: 3.60
pH beyond which significant precipitation occurs [1]: 5.80

OCCOCCN1CCN(C(c2ccccc2)c2ccc(Cl)cc2)CC1 (stereo not drawn) [Atarax, hydroxyzine]
Ambient Solution pH [1]: 5.60
pH beyond which significant precipitation occurs [1]: 6.40

C(=N\NC1=NCCN1)/c1c2ccccc2c(/C=N/NC2=NCCN2)c2ccccc12 [Bisantrene HCl]
External: Reddened ([5]; sex F): +
External: Yellow Deposit ([5]; sex F): +
Subcutaneous: Hemorrhage ([5]; sex F): -
Vascular Lumen: Yellow Deposit ([5]; sex F): +
External: Reddened ([5]; sex M): -
External: Swollen ([5]; sex M): -
External: Yellow Deposit ([5]; sex M): -
Subcutaneous: Edema ([5]; sex M): +
Subcutaneous: Hemorrhage ([5]; sex M): -
Subcutaneous: Yellow Deposit ([5]; sex M): -
Vascular Lumen: Blood Clot ([5]; sex M): -
Vascular Lumen: Yellow Deposit ([5]; sex M): +

C(=N\NC1=NCCN1)/c1c2ccccc2c(/C=N/NC2=NCCN2)c2ccccc12 [Bisantrene, bis(2-imidazolen-2-ylhydrazone)-9,10-anthracenedicarboxaldehyde]
solubility ([6]; 5% dextrose solution, pH 4.6): 10 mg/mL (≈ 25100 µM)
solubility ([6]; Plasma, pH 7.7-8.2): 0.09 mg/mL (≈ 226 µM)
solubility ([6]; Whole Blood, pH 7.9): 0.4 mg/mL (≈ 1000 µM)
solubility ([6]; normal saline, pH 5.5): 2 mg/mL (≈ 5020 µM)
solubility ([6]; serum, pH 7.8): 0.027 mg/mL (≈ 67.8 µM)
partitioning into erythrocytes [7]: eventually partitions into the erythrocytes

N#CC(CCN1CCC(C(N)=O)(N2CCCCC2)CC1)(c1ccccc1)c1ccccc1 [Dipidolor, piritramide]
Ambient Solution pH [1]: 3.97
pH beyond which significant precipitation occurs [1]: 4.50

O=C(CCCN1CC=C(n2c(=O)[nH]c3ccccc32)CC1)c1ccc(F)cc1 [Droperidol]
Ambient Solution pH [1]: 3.24
pH beyond which significant precipitation occurs [1]: 5.83

CC(=O)Nc1ccc(OCC(O)CNC(C)C)cc1 (stereo not drawn) [Eraldin, practolol]
Ambient Solution pH [1]: 5.80
pH beyond which significant precipitation occurs [1]: 7.40

COc1ccc2c(c1)N(C[C@H](C)CN(C)C)c1ccccc1S2 [Nozinan, levomepromize]
Ambient Solution pH [1]: 4.38
pH beyond which significant precipitation occurs [1]: 6.50

OCCN(CCO)c1nc(N2CCCCC2)c2nc(N(CCO)CCO)nc(N3CCCCC3)c2n1 [Persantine, dipyridamole]
Ambient Solution pH [1]: 3.12
pH beyond which significant precipitation occurs [1]: 5.10

CC(CN1c2ccccc2Sc2ccccc21)N(C)C (stereo not drawn) [Phenergan, promethazine]
Ambient Solution pH [1]: 5.68
pH beyond which significant precipitation occurs [1]: 6.42

CN(C)CCCN1c2ccccc2Sc2ccccc21 [Prazine, promazine]
Ambient Solution pH [1]: 4.85
pH beyond which significant precipitation occurs [1]: 7.10

OCc1ccccc1 [benzyl alcohol]
antibacterial activity [8]: higher antibacterial activity
acute systemic toxicity ([9]; 0.9% (w/v), intravenous): absence of acute systemic toxicity
half-life ([9]; in vivo, iv): 1.5 h
volume of distribution ([9]; in vivo): widespread tissue dissemination

C(=N\NC1=NCCN1)/c1c2ccccc2c(/C=N/NC2=NCCN2)c2ccccc12 [bisantrene dihydrochloride]
chemical phlebitis [10]: chemical phlebitis

CC1CC(OC(=O)C(O)c2ccccc2)CC(C)(C)C1 (stereo not drawn) [cyclandelate]
pharmacological effects compared with water solution of the sodium salts [11]: nearly equal

CN1C(=O)CN=C(c2ccccc2)c2cc(Cl)ccc21 [diazepam]
local reactions upon intravenous injection [12]: may not only cause pain upon intravenous injection, but also thrombophlebitis
pharmacological effects compared with water solution of the sodium salts [11]: nearly equal

C[C@H]1C[C@@H]2[C@H]([C@@H](O)C[C@@]3(C)[C@H]2CC[C@]3(O)C(=O)COC(=O)CCC(=O)O)[C@@]2(C)C=CC(=O)C=C12 [methylprednisolone sodium succinate]
tolerability / side effects ([13]; benzyl alcohol or paraben preservative): well tolerated and no important drug-related side effects were encountered
changes in vital signs, electrocardiograms, electroencephalograms, or laboratory parameters [13]: No clinically significant changes
expected corticosteroid induced changes [13]: reversible

O=[N+]([O-])OCC(CO[N+](=O)[O-])O[N+](=O)[O-] [nitroglycerin]
pharmacological effects compared with water solution of the sodium salts [11]: nearly equal
